Results taken from patent publication US20240325398A1, “COMBINATION THERAPIES” (Infinity Pharmaceuticals, Inc., priority 2014, published 2024).

Experiments:
RPMI-8226 = experiment: Combination study, ATPLite 72 h, dose matrix (Synergy Score, CI50); details: combination with Compound 1
Protocol: Cells are thawed from a liquid nitrogen preserved state. Once cells have been expanded and divide at their expected doubling times, screening begins. Cells are seeded in growth media in either black 1536-well or 384-well tissue culture treated plates. Cells are then equilibrated in assay plates via centrifugation and placed in incubators attached to the Dosing Modules at 37° C. for 24 hours before treatment. […] These Tzero (To) plates are read using ultra-sensitive luminescence on Envision plate readers (Perkin Elmer). Treated assay plates are incubated with compound for 72 hours. After 72 hours, plates are developed for endpoint analysis using ATPLite. All data points are collected via automated processes, quality controlled and analyzed using Zalicus software.
where T is treated cell count and V is untreated (vehicle) cell count (at 72 hours). I ranges from 0% (when T=V) to 100% (when T=0). […] The measure of effect in the experiment can be the inhibition of cellular response relative to the untreated level (vehicle alone). […] The inhibition ranges from 0% at the untreated level to 100% when T=0. Inhibition levels are negative for agents that actually increase levels. Other effect measures, such as an activity ratio r=T/V may be more appropriate for some assays. When activity ratios (e.g, fold increase over stimulated control) are being used, the effect can be measured using an induction 1=ln(T/V). With this definition, all effect expressions are the same as for inhibition.
Growth Inhibition (GI) is used as a measure of cell viability. […] A GI reading of 100% represents complete growth inhibition—T72 compound-treated and T0 vehicle signals are matched. […] A GI reading of 200% represents complete death of all cells in the culture well. Compounds reaching an activity plateau of GI 200% are considered cytotoxic. GI is calculated by applying the following test and equation:
Combination analysis data were collected in a 6×6 dose matrix. Synergy is calculated by comparing a combination's response to those of its single compound, against the drug-with-itself dose-additive reference model. Deviations from dose additivity may be assessed visually on an isobologram or numerically with a Combination Index (CI). […] Additive effect is CI=1.0. […] Antagonistic effect is CI>1.0.
To measure combination effects in excess of Loewe additivity, a scalar measure to characterize the strength of synergistic interaction termed the Synergy Score is devised. The Synergy Score is calculated as:
The fractional inhibition for each component agent and combination point in the matrix is calculated relative to the median of all vehicle-treated control wells. The Synergy Score equation integrates the experimentally-observed activity volume at each point in the matrix in excess of a model surface numerically derived from the activity of the component agents using the Loewe model for additivity. Additional terms in the Synergy Score equation (above) are used to normalize for various dilution factors used for individual agents and to allow for comparison of synergy scores across an entire experiment. The inclusion of positive inhibition gating or an Idata multiplier removes noise near the zero effect level, and biases results for synergistic interactions at that occur at high activity levels.
Loewe Volume (Loewe Vol) is used to assess the overall magnitude of the combination interaction in excess of the Loewe additivity model. Loewe Volume is particularly useful when distinguishing synergistic increases in a phenotypic activity (positive Loewe Volume) versus synergistic antagonisms (negative Loewe Volume). […] This model defines additivity as a non-synergistic combination interaction where the combination dose matrix surface should be indistinguishable from either drug crossed with itself.

HBL-1 = experiment: as above
OCI-Ly3 = experiment: as above
SUDHL6 [1] = experiment: Compound 1 with dexamethasone, CellTiter-Glo viability 72 h, combination index; assay type: cell-based; details: combination with Compound 1; SUDHL6 cells; CellTiter-Glo 72 h; FIG. 12
Protocol: The effects of Compound 1 with dexamethasone were examined in a panel of cell lines. Cells were cultured and assayed as follows. Compound 1 was serially diluted with cell culture medium and various DMSO concentrations. The top concentration of Compound 1 exposed to cells was 3 uM for cell lines other than WSU-NHL and DOHH2. For WSU-NHL and DOHH2 cell lines, the top concentration of Compound 1 exposed to the cells was 0.3 uM. Dexamethasone was serially diluted in culture media and phosphate buffered saline (PBS). The top concentration of dexamethasone used on cells was 3 uM. Cells were at least 73% viable and were counted and diluted for plating at a density of about 92,000 cell/mL, 130 uL cells per well in 96 well plates for SUDHL6, Karpas 422, SUDHL4, WSU-NHL, RL, and DOHH2 cell lines. The SUDHL10 cell line was plated at a density of about 46,000 cells/mL, 130 uL cells per well in 96 well plates.
Various concentrations of Compound 1 and various combinations of dexamethasone were added to various wells of cells. Single agents (Compound 1 or dexamethasone alone) were also added to some wells of cells. Cells were incubated with compounds for 72 hours. To assay for effects of the compounds on cell viability, a CellTiter-Glo® luminescent cell viability assay (commercially available) was used. To each plate of cells, 100 uL CellTiter-Glo reagent was added, incubated, and luminescence quantified using a […].
The result for cell line SUDHL6 is depicted in FIG. 12 and in Table 12. […] Table 12 depicts combination index (CI) values for different combinations of dexamethasone/Compound 1 concentrations.

SUDHL6 [2] = experiment: Combination study of Example 1 (data not shown); assay type: cell-based; details: combination with Compound 1, SUDHL6 cell line
Source text: The method is described as follows.
Additive effect is CI=1.0. […] Antagonistic effect is CI>1.0.

NCI-H929 = experiment: Combination study, ATPLite 72 h, dose matrix (Synergy Score, CI50); details: combination with Compound 1
Jeko-1 = experiment: as above; details: combination with Compound 1
[3] = combination with CAL-101, Example 2
[4] = combination with Cmpd 1, Example 2
[5] = combination with Compound 1, 72 h
[6] = combination with CAL-101, OCT-Ly3, Example 2
[7] = combination with Cmpd 1, OCT-Ly3, Example 2
[8] = combination with Compound 1, OCI-Ly3, 72 h

`C[C@@H]1C[C@H]2[C@@H]3CCC4=CC(=O)C=C[C@]4(C)[C@@]3(F)[C@@H](O)C[C@]2(C)[C@@]1(O)C(=O)CO` [dexamethasone, (8S,9R,10S,11S,13S,14S,16R,17R)-9-Fluoro-11,17-dihydroxy-17-(2-hydroxyacetyl)-10,13,16-trimethyl-6,7,8,9,10,11,12,13,14,15,16,17-dodecahydro-3H-cyclopenta[a]phenanthren-3-one] was tested, and the CI50 growth inhibition (RPMI-8226) was “S (S=0.01 to <0.5)”, the CI50 inhibition (RPMI-8226) was “U (U=0.7 to <1)” and the “Synergy Score growth inhibition” value (RPMI-8226) was “A3 (A3=>3)”. For the same compound, the “Synergy Score inhibition” value (RPMI-8226) was “A2 (A2=1 to <3)”, the CI50 growth inhibition (HBL-1; [3]) was “T (T=0.5 to <0.7)” and the CI50 inhibition (HBL-1; [3]) was “S (S=0.01 to <0.5)”. For the same compound, the “Synergy Score growth inhibition” value (HBL-1; [3]) was “A2 (A2=1 to <3)”, the “Synergy Score inhibition” value (HBL-1; [3]) was “A2 (A2=1 to <3)” and the CI50 growth inhibition (HBL-1; [4]) was “T (T=0.5 to <0.7)”. The CI50 inhibition (HBL-1; [4]) was “U (U=0.7 to <1)”, the “Synergy Score growth inhibition” value (HBL-1; [4]) was “A2 (A2=1 to <3)” and the “Synergy Score inhibition” value (HBL-1; [4]) was “A2 (A2=1 to <3)”. For the same compound, the CI50 growth inhibition (HBL-1; [5]) was “S (S=0.01 to <0.5)”, the CI50 inhibition (HBL-1; [5]) was “U (U=0.7 to <1)” and the “Synergy Score growth inhibition” value (HBL-1; [5]) was “A3 (A3=>3)”. The “Synergy Score inhibition” value (HBL-1; [5]) was “A2 (A2=1 to <3)”, the “Synergy Score growth inhibition” value (OCI-Ly3; [6]) was “A1 (A1=0.0001 to <1)” and the “Synergy Score inhibition” value (OCI-Ly3; [6]) was “A1 (A1=0.0001 to <1)”. The CI50 growth inhibition (OCI-Ly3; [7]) was “W (W=≥1)”, the “Synergy Score growth inhibition” value (OCI-Ly3; [7]) was “A1 (A1=0.0001 to <1)” and the “Synergy Score inhibition” value (OCI-Ly3; [7]) was “A1 (A1=0.0001 to <1)”. For the same compound, the CI50 growth inhibition (OCI-Ly3; [8]) was “U (U=0.7 to <1)”, the “Synergy Score growth inhibition” value (OCI-Ly3; [8]) was “A1 (A1=0.0001 to <1)” and the “Synergy Score inhibition” value (OCI-Ly3; [8]) was “A1 (A1=0.0001 to <1)”. For the same compound, the “synergy of the combination” value (SUDHL6 [1]) was “synergy”, the “synergy of the combination” value (SUDHL6 [2]) was “significant synergy” and the CI50 growth inhibition (NCI-H929) was “S (S=0.01 to <0.5)”. For the same compound, the CI50 inhibition (NCI-H929) was “U (U=0.7 to <1)”, the “Synergy Score growth inhibition” value (NCI-H929) was “A3 (A3=>3)” and the “Synergy Score inhibition” value (NCI-H929) was “A2 (A2=1 to <3)”. The CI50 growth inhibition (Jeko-1) was “U (U=0.7 to <1)”, the CI50 inhibition (Jeko-1) was “S (S=0.01 to <0.5)” and the “Synergy Score growth inhibition” value (Jeko-1) was “A3 (A3=>3)”. For the same compound, the “Synergy Score inhibition” value (Jeko-1) was “A3 (A3=>3)”.
